From patent US10294202B2, “Pyrrolidinones as herbicides” (FMC Corporation, priority 2013, dated 2019)

What was measured:
[1] = test system: wheat; assay: Test A pre-/postemergence herbicide test; assay type: in vivo, Triticum aestivum; settings: Postemergence
In short: (§1)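 Seeds in loam–sand blend received preemergence directed soil spray; separately, plants 2–10 cm at one- to two-leaf stage received postemergence spray, both with test chemicals in non-phytotoxic solvent with surfactant. After ~10 days in greenhouse, injury rated visually against untreated controls, 0 (no effect) to 100 (complete control).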

[2] = test system: corn; assay: Test A pre-/postemergence herbicide test; assay type: in vivo, Zea mays; settings: Postemergence
In short: as §1

[3] = test system: galium; assay: Test A postemergence herbicide test; assay type: in vivo, Galium aparine
In short: (§2)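 Plants at the one- to two-leaf stage, 2–10 cm tall, grown in loam/sand pots, received postemergence sprays of the test chemicals. After about 10 days in the greenhouse, injury was scored visually against untreated controls on a 0–100 scale (0 none, 100 complete control).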

[4] = test system: barnyardgrass; assay: Test A pre-/postemergence herbicide test; assay type: in vivo, Echinochloa crus-galli
In short: as §1

[5] = test system: ryegrass, Italian; assay: Test A pre-/postemergence herbicide test; assay type: in vivo, Lolium multiflorum
In short: as §1

[6] = test system: rice; assay: Test B flooded paddy test; assay type: in vivo, Oryza sativa; settings: 500 g ai/ha, Flood; scale of 0 to 100 where 0 is no effect and 100 is complete control
In short: (§3)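 Visual ratings from 0, meaning no effect, up to 100, meaning complete control, were made by comparison with untreated controls 13 to 15 days after treatment. Test compounds went straight into floodwater standing 3 cm over the soil of pots holding 2-leaf seedlings.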

[7] = test system: kochia; assay: Test A pre-/postemergence herbicide test; assay type: in vivo, Kochia scoparia
In short: as §1

[8] = test system: ragweed; assay: Test A pre-/postemergence herbicide test; assay type: in vivo, Ambrosia elatior
In short: as §1

[9] = test system: sedge, umbrella; assay: Test B flooded paddy test; assay type: in vivo, Cyperus difformis; settings: 500 g ai/ha, Flood; scale of 0 to 100 where 0 is no effect and 100 is complete control
In short: as §3

[10] = test system: barnyardgrass; assay: Test B flooded paddy test; assay type: in vivo, Echinochloa crus-galli; settings: 500 g ai/ha, Flood; scale of 0 to 100 where 0 is no effect and 100 is complete control
In short: as §3

[11] = test system: pigweed; assay: Test A pre-/postemergence herbicide test; assay type: in vivo, Amaranthus retroflexus
In short: as §1

[12] = test system: giant foxtail; assay: Test A pre-/postemergence herbicide test; assay type: in vivo, Setaria faberii
In short: as §1

[13] = test system: ducksalad; assay: Test B flooded paddy test; assay type: in vivo, Heteranthera limosa; settings: 500 g ai/ha, Flood; scale of 0 to 100 where 0 is no effect and 100 is complete control
In short: as §3

[14] = test system: blackgrass; assay: Test A postemergence herbicide test; assay type: in vivo, Alopecurus myosuroides
In short: as §2

[15] = 125 g ai/ha, visual rating on 0 to 100 scale (0 no effect, 100 complete control), approx. 10 days
[16] = 500 g ai/ha, 0 to 100 scale (0 no effect, 100 complete control)
[17] = Postemergence, 125 g ai/ha, visual rating on 0 to 100 scale (0 no effect, 100 complete control), approx. 10 days
[18] = Postemergence, 500 g ai/ha, 0 to 100 scale (0 no effect, 100 complete control)
[19] = Preemergence, 125 g ai/ha, 0 to 100 scale where 0 is no effect and 100 is complete control
[20] = Preemergence, 500 g ai/ha, visual rating on 0 to 100 scale (0 no effect, 100 complete control)

| Structure (SMILES) | Plant response rating, Wheat [1, 15] | Plant response rating, Wheat [1, 16] | Plant response rating, Corn [2, 15] | Plant response rating, Corn [2, 16] | Plant response rating, Galium [3, 15] | Plant response rating, Galium [3, 16] | Plant response rating, Barnyardgrass [4, 17] | Plant response rating, Barnyardgrass [4, 18] | Plant response rating, Barnyardgrass [4, 19] | Barnyardgrass plant response rating [4, 20] | Plant response rating, Ryegrass, Italian [5, 17] | Plant response rating, Ryegrass, Italian [5, 18] | Plant response rating, Ryegrass, Italian [5, 19] | Ryegrass, Italian plant response rating [5, 20] | Plant response rating, Rice [6] | Plant response rating, Kochia [7, 17] | Plant response rating, Kochia [7, 18] | Plant response rating, Kochia [7, 19] | Kochia plant response rating [7, 20] | Plant response rating, Ragweed [8, 17] | further results |
| --- | --- | --- | --- | --- | --- | --- | --- | --- | --- | --- | --- | --- | --- | --- | --- | --- | --- | --- | --- | --- | --- |
| O=C1NCC(c2cccc(Oc3ccccc3)c2)C1C(=O)Nc1cccc(F)c1F (stereo not drawn) [Compound 332] | 0 | 20 | 0 | 0 | 0 | 20 | 40 | 50 | 70 | 80 | 0 | 20 | 0 | 0 | 0 | 0 | 20 | 0 | 0 | 0 | Plant response rating, Ragweed [8, 18]: 0; Plant response rating, Ragweed [8, 19]: 0; Ragweed plant response rating [8, 20]: 0; Plant response rating, Sedge, Umbrella [9]: 0; Plant response rating, Barnyardgrass [10]: 40; Plant response rating, Pigweed [11, 17]: 0; Plant response rating, Pigweed [11, 18]: 0; Plant response rating, Pigweed [11, 19]: 0; Pigweed plant response rating [11, 20]: 0; Plant response rating, Foxtail, Giant [12, 17]: 30; Plant response rating, Foxtail, Giant [12, 18]: 80; Plant response rating, Foxtail, Giant [12, 19]: 80; Foxtail, Giant plant response rating [12, 20]: 90; Plant response rating, Ducksalad [13]: 75; Plant response rating, Blackgrass [14, 15]: 0; Plant response rating, Blackgrass [14, 16]: 0 |
| O=C1NCC(c2cccc(Oc3ccccc3)c2)C1C(=O)Nc1ccc(F)c(F)c1F (stereo not drawn) [Compound 333] | 0 | 20 | 0 | 20 | 0 | 40 | 20 | 60 | 50 | 90 | 0 | 30 | 0 | 20 | 0 | 0 | 20 | 0 | 0 | 0 | Plant response rating, Ragweed [8, 18]: 20; Plant response rating, Ragweed [8, 19]: 0; Ragweed plant response rating [8, 20]: 0; Plant response rating, Sedge, Umbrella [9]: 0; Plant response rating, Barnyardgrass [10]: 0; Plant response rating, Pigweed [11, 17]: 0; Plant response rating, Pigweed [11, 18]: 20; Plant response rating, Pigweed [11, 19]: 0; Pigweed plant response rating [11, 20]: 0; Plant response rating, Foxtail, Giant [12, 17]: 50; Plant response rating, Foxtail, Giant [12, 18]: 80; Plant response rating, Foxtail, Giant [12, 19]: 80; Foxtail, Giant plant response rating [12, 20]: 90; Plant response rating, Ducksalad [13]: 20; Plant response rating, Blackgrass [14, 15]: 0; Plant response rating, Blackgrass [14, 16]: 30 |
| O=C1NCC(c2cccc(Oc3ccccc3)c2)C1C(=O)Nc1ccccc1Cl (stereo not drawn) [Compound 334] | 0 | 0 | 0 | 0 | 0 | 0 | 0 | 0 | 0 | 0 | 0 | 0 | 0 | 0 | 0 | 0 | 0 | 0 | 0 | 0 | Plant response rating, Ragweed [8, 18]: 0; Plant response rating, Ragweed [8, 19]: 0; Ragweed plant response rating [8, 20]: 0; Plant response rating, Sedge, Umbrella [9]: 0; Plant response rating, Barnyardgrass [10]: 30; Plant response rating, Pigweed [11, 17]: 0; Plant response rating, Pigweed [11, 18]: 0; Plant response rating, Pigweed [11, 19]: 0; Pigweed plant response rating [11, 20]: 0; Plant response rating, Foxtail, Giant [12, 17]: 0; Plant response rating, Foxtail, Giant [12, 18]: 10; Plant response rating, Foxtail, Giant [12, 19]: 0; Foxtail, Giant plant response rating [12, 20]: 50; Plant response rating, Ducksalad [13]: 40; Plant response rating, Blackgrass [14, 15]: 0; Plant response rating, Blackgrass [14, 16]: 0 |
